Data as given in patent US8389500B2, “Fused heterocyclic compounds as ion channel modulators” (Gilead Sciences, Inc., priority 2008, dated 2013).

Columns and labels:
hERG potassium channel = biological target: T1, hERG potassium channel (Homo sapiens, UniProt Q12809); assay: hERG screening assay (PatchXpress patch clamp, CHO cells); type: cell-based; settings: hERG in CHO cells, peak current at −50 mV; for hERG Patch Clamp hERG % blk 1 μm: 1 μm test compound; for hERG Patch Clamp hERG % blk 10 μm: 10 μm test compound
T1 construct: expressed in transfected cells; host or cells: CHO (Chinese Hamster Ovary)
Method: Compounds were screened to test their activity in blocking the hERG potassium channel. The hERG channel is heterologously expressed in a CHO (Chinese Hamster Ovary) cell line. Cells are maintained with standard tissue culture procedures and stable channel expression is maintained with 500 μg/ml G418 in the culture medium. Cells are harvested for testing on the PatchXpress automated patch clamp with Accumax (Innovative Cell Technologies, San Diego, Calif.) to isolate single cells.
The following solutions are used for electrophysiological recordings. The external solution contains: 2 mM CaCl2; 2 mM MgCl2; 4 mM KCl; 150 mM NaCl; 10 mM Glucose; 10 mM HEPES (pH 7.4 with 1M NaOH, osmolarity). The internal solution contains: 140 mM KCl, 10 mM MgCl2, 6 mM EGTA, 5 mM HEPES, 5 mM ATP (pH adjusted to 7.25 with KOH).
hERG channels are activated when the voltage is stepped to +20 mV from the −80 mV holding potential. During a 5 second step at +20 mV, the channels activate and then largely inactivate, so the currents are relatively small. Upon returning to −50 mV from +20 mV, hERG currents transiently become much larger as inactivation is rapidly removed and then the channel closes. The first step to −50 mV for 300 ms is used as a baseline for measuring the peak amplitude during the step to −50 mV after channel activation. The peak current at −50 mV is measured both under control conditions and after addition of compound.
All compounds are prepared as 10 mM DMSO stocks in glass vials. Stock solutions are mixed by vigorous vortexing and sonication for about 2 minutes at room temperature. For testing, compounds are diluted in glass vials using an intermediate dilution step in pure DMSO and then further diluted to working concentrations in external solution. Dilutions are prepared no longer than 20 minutes before use.
After achieving the whole-cell configuration, cells are monitored for 90 seconds to assess stability and washed with external solution for 66 seconds. The voltage protocol described above is then applied to the cells every 12 seconds and throughout the whole procedure. Only cells with stable recording parameters and meeting specified health criteria are allowed to enter the compound addition procedure.
External solution containing 0.1% DMSO (vehicle) is applied to the cells first to establish the control peak current amplitude. After allowing the current to stabilize for 3 to 5 minutes, 1 μM and then 10 μM test compounds are applied. Each compound concentration is added 4 times and cells are kept in test solution until the effect of the compound reaches steady state or for a maximum of 12 minutes. After addition of test compound, a positive control (1 μM Cisapride) is added and must block >95% of the current for the experiment to be considered valid. Washout in the external solution compartment is performed until the recovery of the current reaches steady state. Data are analyzed using DataXpress, Clampfit (Molecular Devices, Inc., Sunnyvale) and Origin 7 (Originlab Corp.)

[1] = biological target: T2, wild-type human cardiac sodium channel, hNav1.5 (late sodium current) (Homo sapiens, UniProt Q14524); assay: Late INa screening assay (PatchXpress whole cell patch clamp); type: cell-based; settings: HEK293 hNav1.5, late INa generated with 10 μM Tefluthrin (some experiments 50 nM ATX II); for inhibition at 1 µM: 1 μM test compound, read-out: Late INa % blk (1 μM test cmpd); for inhibition at 10 µM: 10 μM test compound, read-out: Late INa % blk (10 μM test cmpd)
T2 construct: host or cells: HEK293
In short: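 Late sodium current block was assessed by automated whole cell patch clamp on a PatchXpress 7000A using HEK293 cells stably expressing wild-type human hNav1.5 without beta subunits. Late current was induced with 10 μM Tefluthrin or 50 nM ATX II. Channels were stepped from −120 mV to −20 mV for 250 ms at 0.1 Hz at 24-27° C. Current was normalized to 0Na baseline and expressed as percent block.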

T2 sequence (Q14524 whole entry): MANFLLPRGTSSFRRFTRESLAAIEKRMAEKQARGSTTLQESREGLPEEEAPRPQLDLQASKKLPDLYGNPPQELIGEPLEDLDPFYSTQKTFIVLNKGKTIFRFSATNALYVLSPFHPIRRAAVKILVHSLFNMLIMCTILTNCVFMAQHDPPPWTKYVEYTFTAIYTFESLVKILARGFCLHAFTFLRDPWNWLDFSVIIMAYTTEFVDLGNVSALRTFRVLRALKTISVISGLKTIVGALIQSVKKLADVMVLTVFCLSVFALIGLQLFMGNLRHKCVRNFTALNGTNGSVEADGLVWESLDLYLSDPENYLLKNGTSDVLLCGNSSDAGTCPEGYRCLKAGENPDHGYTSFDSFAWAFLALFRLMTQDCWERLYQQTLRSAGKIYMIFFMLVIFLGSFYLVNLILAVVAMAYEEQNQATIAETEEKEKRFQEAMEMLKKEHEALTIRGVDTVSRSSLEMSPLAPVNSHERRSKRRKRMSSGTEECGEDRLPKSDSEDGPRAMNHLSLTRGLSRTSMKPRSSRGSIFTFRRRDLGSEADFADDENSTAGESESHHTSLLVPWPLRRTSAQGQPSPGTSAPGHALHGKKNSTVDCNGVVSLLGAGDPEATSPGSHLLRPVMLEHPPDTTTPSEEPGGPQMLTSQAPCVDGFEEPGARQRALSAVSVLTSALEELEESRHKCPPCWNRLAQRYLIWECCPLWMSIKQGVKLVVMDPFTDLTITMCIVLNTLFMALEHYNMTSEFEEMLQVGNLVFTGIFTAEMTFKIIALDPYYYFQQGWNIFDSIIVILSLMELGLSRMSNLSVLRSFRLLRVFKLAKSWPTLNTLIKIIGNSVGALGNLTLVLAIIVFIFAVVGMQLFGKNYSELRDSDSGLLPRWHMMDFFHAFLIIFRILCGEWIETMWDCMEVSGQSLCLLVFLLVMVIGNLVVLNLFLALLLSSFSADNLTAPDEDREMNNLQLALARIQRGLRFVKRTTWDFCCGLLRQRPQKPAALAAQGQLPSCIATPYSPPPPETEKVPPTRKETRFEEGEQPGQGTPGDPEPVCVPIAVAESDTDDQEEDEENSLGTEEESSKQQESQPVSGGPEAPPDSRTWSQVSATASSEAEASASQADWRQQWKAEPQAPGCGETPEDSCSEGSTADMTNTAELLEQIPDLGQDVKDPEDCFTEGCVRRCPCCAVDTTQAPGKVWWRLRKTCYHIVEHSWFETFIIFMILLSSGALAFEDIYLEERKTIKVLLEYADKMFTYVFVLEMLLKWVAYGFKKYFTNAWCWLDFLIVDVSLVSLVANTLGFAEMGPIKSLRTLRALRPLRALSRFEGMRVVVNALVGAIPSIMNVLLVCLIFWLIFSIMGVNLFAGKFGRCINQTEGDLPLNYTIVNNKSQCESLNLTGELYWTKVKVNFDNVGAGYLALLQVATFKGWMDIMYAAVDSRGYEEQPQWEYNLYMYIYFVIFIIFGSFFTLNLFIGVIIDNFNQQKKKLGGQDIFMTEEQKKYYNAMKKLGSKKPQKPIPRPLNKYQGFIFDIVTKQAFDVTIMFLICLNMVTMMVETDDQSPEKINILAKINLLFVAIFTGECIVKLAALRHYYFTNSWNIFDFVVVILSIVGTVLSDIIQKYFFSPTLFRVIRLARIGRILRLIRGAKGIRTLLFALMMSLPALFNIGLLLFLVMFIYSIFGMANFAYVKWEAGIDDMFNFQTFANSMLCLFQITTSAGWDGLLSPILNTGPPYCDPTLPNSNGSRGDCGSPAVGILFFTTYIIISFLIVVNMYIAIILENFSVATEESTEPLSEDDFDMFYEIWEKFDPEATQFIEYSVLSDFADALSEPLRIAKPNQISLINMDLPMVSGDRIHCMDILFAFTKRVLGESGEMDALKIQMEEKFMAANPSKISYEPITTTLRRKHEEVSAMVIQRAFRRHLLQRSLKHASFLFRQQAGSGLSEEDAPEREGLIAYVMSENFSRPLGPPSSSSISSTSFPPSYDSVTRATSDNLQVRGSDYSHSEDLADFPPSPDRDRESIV
T1 sequence (Q12809 whole entry): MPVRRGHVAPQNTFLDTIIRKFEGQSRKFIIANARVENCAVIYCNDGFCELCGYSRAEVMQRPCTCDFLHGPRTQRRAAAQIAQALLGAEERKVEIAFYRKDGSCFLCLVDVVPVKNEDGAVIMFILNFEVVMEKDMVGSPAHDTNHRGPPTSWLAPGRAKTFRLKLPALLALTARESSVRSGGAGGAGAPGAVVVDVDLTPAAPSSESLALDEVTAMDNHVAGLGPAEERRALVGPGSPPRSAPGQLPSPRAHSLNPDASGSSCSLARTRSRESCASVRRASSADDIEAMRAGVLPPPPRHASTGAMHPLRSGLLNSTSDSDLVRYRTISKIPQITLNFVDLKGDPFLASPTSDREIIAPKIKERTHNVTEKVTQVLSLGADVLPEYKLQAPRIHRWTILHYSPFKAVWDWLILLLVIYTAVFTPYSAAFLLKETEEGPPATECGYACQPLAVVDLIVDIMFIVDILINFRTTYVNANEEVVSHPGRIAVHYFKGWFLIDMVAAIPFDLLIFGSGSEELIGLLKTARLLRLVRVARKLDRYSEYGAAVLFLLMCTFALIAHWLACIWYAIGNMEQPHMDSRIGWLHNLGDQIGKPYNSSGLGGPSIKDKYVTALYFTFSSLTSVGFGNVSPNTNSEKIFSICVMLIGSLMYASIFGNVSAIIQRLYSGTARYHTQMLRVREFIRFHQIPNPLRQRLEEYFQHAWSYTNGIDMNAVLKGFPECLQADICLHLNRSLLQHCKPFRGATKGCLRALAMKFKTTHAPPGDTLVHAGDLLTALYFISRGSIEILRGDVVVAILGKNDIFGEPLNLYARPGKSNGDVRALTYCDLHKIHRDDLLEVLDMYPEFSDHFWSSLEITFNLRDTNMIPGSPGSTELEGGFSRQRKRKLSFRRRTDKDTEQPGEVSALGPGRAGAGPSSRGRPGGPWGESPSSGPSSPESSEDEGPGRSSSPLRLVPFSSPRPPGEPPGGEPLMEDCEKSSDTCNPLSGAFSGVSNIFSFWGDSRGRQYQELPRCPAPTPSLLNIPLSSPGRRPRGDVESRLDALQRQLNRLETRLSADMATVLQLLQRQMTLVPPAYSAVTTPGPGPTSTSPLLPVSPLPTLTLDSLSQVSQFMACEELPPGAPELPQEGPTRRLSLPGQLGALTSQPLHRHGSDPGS

Structure (SMILES)	hERG Patch Clamp hERG % blk 1 μm (hERG potassium channel) [%]	hERG Patch Clamp hERG % blk 10 μm (hERG potassium channel) [%]	inhibition at 1 µM [1] [%]	inhibition at 10 µM [1] [%]
CCS(=O)(=O)Nc1ccc(-c2ccc(Cl)c(F)c2)c(Cl)c1 [PT-026, N-(2,4′-dichloro-3′-fluorobiphenyl-4-yl)ethanesulfonamide]	10	10	33.8	78.5
O=S(=O)(Nc1ccc(-c2cccc(OC(F)(F)F)c2)cc1)C1CC1 [PT-060, N-[3′-(trifluoromethoxy)biphenyl-4-yl]cyclopropanesulfonamide]	10	35.5	–	54.4
CS(=O)(=O)Nc1ccc(-c2ccc(Cl)c(F)c2)c(Cl)c1 [PT-017, N-(2,4′-dichloro-3′-fluorobiphenyl-4-yl)methanesulfonamide]	21	80	34.8	69.5
Cc1cc(N(Cc2ccc(C(=O)O)cc2)S(C)(=O)=O)ccc1-c1ccc(Oc2ccccc2)cc1 [PT-108, 4-{[(2-methyl-4′-phenoxybiphenyl-4-yl)(methylsulfonyl)amino]methyl}benzoic acid]	10	10	–	55.6
CS(=O)(=O)Nc1ccc(-c2ccccc2OC(F)(F)F)c(Cl)c1 [PT-022, N-[2-chloro-2′-(trifluoromethoxy)biphenyl-4-yl]methanesulfonamide]	10	92	–	54.8
O=S(=O)(Nc1ccc(-c2cccc(OC(F)(F)F)c2)c(Cl)c1)C1CC1 [PT-047, N-[2-chloro-3′-(trifluoromethoxy)biphenyl-4-yl]cyclopropanesulfonamide]	10	28.5	48.6	77.7
CS(=O)(=O)Nc1ccc(-c2ccc(C(F)(F)F)cc2)c(C(F)(F)F)c1 [PT-013, N-[2,4′-bis(trifluoromethyl)biphenyl-4-yl]methanesulfonamide]	10.5	29	–	54.1
O=S(=O)(Nc1ccc(-c2ccc(F)c(Cl)c2)c(Cl)c1)C1CC1 [PT-049, N-(2,3′-dichloro-4′-fluorobiphenyl-4-yl)cyclopropanesulfonamide]	10	32	–	60.1
Cc1cc(N(Cc2cccc(C(=O)O)c2)S(C)(=O)=O)ccc1-c1ccc(Oc2ccccc2)cc1 [PT-112, 3-{[(2-methyl-4′-phenoxybiphenyl-4-yl)(methylsulfonyl)amino]methyl}benzoic acid]	10	21.5	–	35.5
CS(=O)(=O)Nc1ccc(-c2cccc(C(F)(F)F)c2)cc1 [PT-001, N-[3′-(trifluoromethyl)biphenyl-4-yl]methanesulfonamide]	10	66	–	58.1
O=S(=O)(Nc1ccc(-c2ccc(OC(F)(F)F)cc2)c(Cl)c1)C1CC1 [PT-050, N-[2-chloro-4′-(trifluoromethoxy)biphenyl-4-yl]cyclopropanesulfonamide]	2	47.5	–	61
Cc1cc(NS(C)(=O)=O)ccc1-c1ccc(Oc2ccccc2)cc1 [PT-046, N-(2-methyl-4′-phenoxybiphenyl-4-yl)methanesulfonamide]	10	28.5	–	–
Cc1cc(N(CC(=O)O)S(C)(=O)=O)ccc1-c1ccc(Oc2ccccc2)cc1 [PT-082, N-(2-methyl-4′-phenoxybiphenyl-4-yl)-N-(methylsulfonyl)glycine]	10	10	–	19.9
CS(=O)(=O)Nc1ccc(-c2ccc(Oc3ccccc3)cc2)cc1Cl [PT-034, N-(3-chloro-4′-phenoxybiphenyl-4-yl)methanesulfonamide]	10	10	25.9	69.7
COc1cc(NS(C)(=O)=O)ccc1-c1ccc(Cl)c(F)c1 [PT-003, N-(4′-chloro-3′-fluoro-2-methoxybiphenyl-4-yl)methanesulfonamide]	10	28.3	11.2	58.3
CS(=O)(=O)Nc1ccc(-c2ccc(C(F)(F)F)cc2)c(Cl)c1 [PT-018, N-[2-chloro-4′-(trifluoromethyl)biphenyl-4-yl]methanesulfonamide]	10	10	–	50.6
CNC(=O)c1cc(N(Cc2ccc(S(C)(=O)=O)cc2)S(C)(=O)=O)ccc1-c1ccc(Oc2ccccc2)cc1 [PT-138, N-methyl-4-(N-(4-(methylsulfonyl)benzyl)methylsulfonamido)-4′-phenoxybiphenyl-2-carboxamide]	–	–	–	12.6
COC(=O)c1ccc(-c2ccc(NS(C)(=O)=O)cc2Cl)cc1 [PT-044, methyl 2′-chloro-4′-[(methylsulfonyl)amino]biphenyl-4-carboxylate]	–	–	–	50.6
COc1cc(NS(C)(=O)=O)ccc1-c1ccc(Cl)cc1 [PT-032, N-(4′-chloro-2-methoxybiphenyl-4-yl)methanesulfonamide]	–	–	–	42
CS(=O)(=O)Nc1ccc(-c2cccc(OC(F)(F)F)c2)c(C(F)(F)F)c1 [PT-015, N-[3′-(trifluoromethoxy)-2-(trifluoromethyl)biphenyl-4-yl]methanesulfonamide]	–	–	–	60.8
CS(=O)(=O)Nc1ccc(-c2ccc(F)cc2)c(Cl)c1 [PT-037, N-(2-chloro-4′-fluorobiphenyl-4-yl)methanesulfonamide]	–	–	–	40.4
O=S(=O)(Nc1ccc(-c2ccc(Oc3ccccc3)cc2)cc1)C1CC1 [PT-072, N-(4′-phenoxybiphenyl-4-yl)cyclopropanesulfonamide]	–	–	–	35.6
COc1cccc(S(=O)(=O)Nc2cccc(-c3ccc(Cl)cc3)c2)c1 [PT-127, N-(4′-chlorobiphenyl-3-yl)-3-methoxybenzenesulfonamide]	–	–	–	25
CCOC(=O)CN(c1ccc(-c2cccc(OC(F)(F)F)c2)c(OC)c1)S(C)(=O)=O [PT-020, ethyl N-[2-methoxy-3′-(trifluoromethoxy)biphenyl-4-yl]-N-(methylsulfonyl)glycinate]	–	–	–	52.9
Cc1cc(NS(C)(=O)=O)ccc1-c1cccc(OC(F)(F)F)c1 [PT-040, N-[2-methyl-3′-(trifluoromethoxy)biphenyl-4-yl]methanesulfonamide]	10	25	32.5	68.3
CS(=O)(=O)Nc1ccc(-c2ccc(Cl)c(F)c2)cc1 [PT-005, N-(4′-chloro-3′-fluorobiphenyl-4-yl)methanesulfonamide]	–	–	–	20.5
